# Data as given in publication PMC12787000 (Molecules, 2025).
# Columns and labels:
# A375 cells = assay: MTT cell viability assay, A375; format: cell-based; conditions: 72 h; for Effect on cell viability at single concentration: A375, 25 μM, MTT; for IC50: Homo sapiens, A-375, A375, MTT
# Method: (§1) A375, MRC-5, and HaCaT cell lines were obtained from the American Type Culture Collection (ATCC). 518A2 cell line was kindly provided by Dr. […]ć. All cell lines were cultured in RPMI 1640 medium supplemented with 2 g/L glucose, 10% fetal bovine serum (FBS), and antibiotics. […] Cell viability was assessed using the MTT assay (Sigma Aldrich, #M5655). […] After 72 h of incubation, absorbance was measured at 570 nm using a Multiskan SkyHigh microplate reader (Thermo Fisher Scientific, Helsinki, Finland). Values were corrected by subtracting the absorbance measured in wells containing cell-free medium with tested compounds.
# [1] = tested on: HaCaT (human keratinocytes); assay: MTT cell viability assay, HaCaT; format: cell-based; conditions: 72 h
# Method: as §1
# [2] = Stability in biological media (HPLC); format: physicochemical; conditions: room temperature
# Method: To test stability in biological media, three best drug candidates (compounds 1, 3, and 8) were dissolved in 0.05 M hydrochloric acid, pH 2.0, and phosphate buffer, pH 5.5 (prepared by dissolving sodium dihydrogen phosphate dihydrate and disodium hydrogen phosphate in distilled water, followed by the adjustment of pH by ortho-phosphoric acid) and RPMI 1640 medium. Stock solutions in DMSO (2 mg/mL) were diluted by corresponding medium to obtain working solutions (0.02 mg/mL) and incubated at room temperature in 0.05 M hydrochloric acid (2 h), phosphate buffer pH 5.5 (5 h), and RPMI 1640 medium (72 h). Compounds were injected freshly prepared, and after incubation time, the differences in concentrations was expressed as percentages. Quantification was performed on Dionex Ultimate 3000 HPLC system (Thermo Fisher Scientific, Dreieich, Germany), consisting of Dionex Ultimate 3000 quaternary pump, autosampler, and DAD detector. The column was Zorbax Extend C18 (150 mm × 4.6 mm, 5 µm particle size). The mobile phase was 0.1% formic acid/acetonitrile = 50/50 (compound 1) and 60/40 (compounds 3 and 8). The column temperature was adjusted to 25 °C, and the flow rate was 0.5 mL/min. The detection was performed at 300 nm.
SMILES,Effect on cell viability at single concentration (A375 cells),IC50 (A375 cells),IC50 [1],"Change in concentration after incubation in phosphate buffer pH 5.5 ([2]; phosphate buffer pH 5.5, 5 h)","Change in concentration after incubation in 0.05 M hydrochloric acid ([2]; 0.05 M HCl, pH 2.0, 2 h)","Change in concentration after incubation in RPMI 1640 medium ([2]; RPMI 1640 medium, 72 h)"
"CCCc1nc2c(C)cc(-c3nc4ccccc4n3C)cc2n1Cc1ccc(-c2ccccc2C(=O)NC(Cc2ccc(O)cc2)C(=O)O)cc1 (stereo not drawn) [compound 3, 2-{[4′-(1,7′-dimethyl-2′-propyl-1H-[2,5′]bibenzoimidazolyl-3′-ylmethyl)-biphenyl-2-carbonyl]-amino}-3-(4-hydroxy-phenyl)-propionic acid]",significant reductions in cell viability,32.1 ± 2.38 µM,63.46 ± 0.23 µM,3.49%,,
"CCCc1nc2c(C)cc(-c3nc4ccccc4n3C)cc2n1Cc1ccc(-c2ccccc2C(=O)NC(Cc2ccccc2)C(=O)O)cc1 (stereo not drawn) [compound 8, 2-{[4′-(1,7′-dimethyl-2′-propyl-1H-[2,5′]bibenzoimidazolyl-3′-ylmethyl)-biphenyl-2-carbonyl]-amino}-3-phenyl-propionic acid]",significant reductions in cell viability,27.2 ± 0.58 µM,70.8 ± 6.99 µM,,3.04%,2.00%
